Test results reported in patent US6255497A, “Method for the inhibition of ALDH-I useful in the treatment of alcohol dependence or alcohol abuse” (priority 1998, dated 2001).

How the values were obtained:
golden hamsters = assay: Dose effect on free choice ethanol intake in golden hamsters, i.p.; format: in vivo, golden hamster; conditions: i.p.
Description: It is common practice in quantitative drug studies with rodents to use intraperitoneal (i.p.) administration to deliver drug doses accurately (Goodman and Gilman, 1975, The Pharmacological Basis of Therapeutics, 5th ed., Macmillan, N.Y., p. 8). In particular, this method avoids variability introduced by technical difficulties of oral administration via feeding (full versus empty stomach, etc.), variations in drug transport in the gastrointestinal tract (variations in intestinal fauna and flora, individual variations in absorption rate expected of outbred animals, etc.) and other factors. […] As a control 1 ml of sterile saline was injected i.p. daily during the baseline period (typically 7-9 days) that establishes drinking preference without the drug. Saline injection i.p. had no effect on the drinking behavior of golden hamsters. Ethanol was provided as a 20% solution. Hamsters could be used more than once (but were not used more than three times) in a cycle of baseline saline injections followed by drug injections, each cycle with the drug at a different dose.
The response to daidzin treatment was computed as:
% Response=(Vo -Vd)×100/Vo

ALDH-II = biological target: T1, ALDH-II (Homo sapiens, UniProt P00352); assay: ALDH-II inhibition by structurally related compounds, acetaldehyde as substrate; format: biochemical; parameters: A liver sample (50 g wet weight) with the usual Caucasian ALDH phenotype (both ALDH-I and ALDH-II present); from tissue; host or cells: human liver (autopsy), purified by CM-52, AMP-agarose and DEAE HPLC
T1 sequence (P00352 1-501): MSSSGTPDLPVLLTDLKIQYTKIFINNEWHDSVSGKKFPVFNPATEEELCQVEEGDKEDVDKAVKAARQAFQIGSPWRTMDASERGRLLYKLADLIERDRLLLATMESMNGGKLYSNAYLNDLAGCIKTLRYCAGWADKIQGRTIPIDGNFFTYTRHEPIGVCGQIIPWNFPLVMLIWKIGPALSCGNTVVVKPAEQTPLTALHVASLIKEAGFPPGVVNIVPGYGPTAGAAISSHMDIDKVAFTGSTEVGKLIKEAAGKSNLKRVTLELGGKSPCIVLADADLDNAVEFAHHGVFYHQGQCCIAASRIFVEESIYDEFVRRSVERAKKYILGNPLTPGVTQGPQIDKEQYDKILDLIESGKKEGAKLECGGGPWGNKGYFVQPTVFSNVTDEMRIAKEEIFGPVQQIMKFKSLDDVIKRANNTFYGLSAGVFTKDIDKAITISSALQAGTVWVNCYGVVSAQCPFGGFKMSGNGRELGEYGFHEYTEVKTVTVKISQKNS
Experimental: *ALDH activities were assayed at 25° C. in 0.1 M sodium
pyrophosphate buffer pH 9.5 containins 0.15 M KCl, 1 mM NAD^+, various
concentrations of inhibitors and 5 and 200 μM acetaldehyde for ALDH-I
and ALDH-II, respectively.
For the study of the inhibition of ALDH-I by structurally related compounds to generate the data shown in Tables IV and V, each individual compound was dissolved at different concentrations in methanol and was added to the assay medium as 10 μL aliquots. For controls, 10 […] of methanol was added to the assay medium. In a standard ALDH-I assay, the assay medium contains 0.1 M sodium pyrophosphate pH 9.5, 0.15 M KCl, 1 mM NAD^+, 1% methanol, 5 μM acetaldehyde, 5-10 nM ALDH-I and various concentrations of inhibitor. The enzyme reaction rates were measured by monitoring the production of NADH at 340 nm (ε=6.22 mM^-1 cm^-1) with a Varian Cary 219 spectrophotometer thermostated at 25° C. (Fong et al., 1989, supra). The inhibition of ALDH-I by the inhibitors was calculated as: [formula]
where Vo is the enzyme reaction rate measured in the absence of inhibitor, and where Vi is the enzyme reaction rate measured in the presence of inhibitor. […] IC50 values are related to the underlying Ki values.

O=c1c(-c2ccc(O)cc2)coc2cc(O[C@@H]3O[C@H](CO)[C@@H](O)[C@H](O)[C@H]3O)ccc12 [Daidzin, 7-glucoside of daidzein]
suppression of alcohol intake at 5 mg/day (golden hamsters; 20% ethanol, 5 mg/day): 20% | suppression of alcohol intake at 10 mg/day (golden hamsters; 20% ethanol, 10 mg/day): 50% | suppression of alcohol intake at 30 mg/day (golden hamsters; 20% ethanol, 30 mg/day): 80% | EC50 or half-maximal response, suppression of alcohol intake (golden hamsters; golden hamsters): 10 mg/day | IC50 (ALDH-II): 20 µM
